Measurements: patent publication EP0549857A1, “Antibacterial quinolone carboxylic acid derivatives” (KOREA RESEARCH INSTITUTE OF CHEMICAL TECHNOLOGY, priority 1991, dated 1993)
Values after ≈ are worked out from the molar mass of the structure shown. Like-named read-outs stand apart in the source and are kept apart here.

What was measured:
Escherichia coli 1507E = experiment: In vitro anti-bacterial activity test (MIC, two-fold agar dilution); format: cell-based; conditions: Mueller-Hinton agar, 10⁷ CFU/mℓ, 37°C, 18 hours, read-out: MIC
[1] = tested on: Pseudomonas aeruginosa 9027; experiment: as above; format: cell-based; conditions: Pseudomonas aeruginosa 9027; Mueller-Hinton agar, 10⁷ CFU/mℓ, 37°C, 18 hours; read-out: MIC
[2] = tested on: Staphylococcus aureus 285; experiment: as above; format: cell-based; conditions: Staphylococcus aureus 285; Mueller-Hinton agar, 10⁷ CFU/mℓ, 37°C, 18 hours; read-out: MIC
Salmonella typhimurium = experiment: as above; format: cell-based; conditions: Salmonella enterica, Mueller-Hinton agar, 10⁷ CFU/mℓ, 37°C, 18 hours, read-out: MIC
[3] = tested on: Klebsiella aerogenes 1522E; experiment: as above; format: cell-based; conditions: Mueller-Hinton agar, 10⁷ CFU/mℓ, 37°C, 18 hours, read-out: MIC
Escherichia coli DC 0 = experiment: as above; format: cell-based; conditions: DC0, Mueller-Hinton agar, 10⁷ CFU/mℓ, 37°C, 18 hours, read-out: MIC
[4] = tested on: Pseudomonas aeruginosa 1592E; experiment: as above; format: cell-based; conditions: Mueller-Hinton agar, 10⁷ CFU/mℓ, 37°C, 18 hours, read-out: MIC
Escherichia coli OTEM = experiment: as above; format: cell-based; conditions: Mueller-Hinton agar, 10⁷ CFU/mℓ, 37°C, 18 hours, read-out: MIC
Escherichia coli DC 2 = experiment: as above; format: cell-based; conditions: DC2, Mueller-Hinton agar, 10⁷ CFU/mℓ, 37°C, 18 hours, read-out: MIC
[5] = tested on: Streptococcus pyogenes 308A; experiment: as above; format: cell-based; conditions: Mueller-Hinton agar, 10⁷ CFU/mℓ, 37°C, 18 hours, read-out: MIC
Enterobacter cloacae P99 = experiment: as above; format: cell-based; conditions: Mueller-Hinton agar, 10⁷ CFU/mℓ, 37°C, 18 hours, read-out: MIC
Escherichia coli O 55 = experiment: as above; format: cell-based; conditions: O55, Mueller-Hinton agar, 10⁷ CFU/mℓ, 37°C, 18 hours, read-out: MIC
[6] = tested on: Klebsiella aerogenes 1082E; experiment: as above; format: cell-based; conditions: Mueller-Hinton agar, 10⁷ CFU/mℓ, 37°C, 18 hours, read-out: MIC
[7] = tested on: Streptococcus pyogenes 77A; experiment: as above; format: cell-based; conditions: Streptococcus pyogenes 77A; Mueller-Hinton agar, 10⁷ CFU/mℓ, 37°C, 18 hours; read-out: MIC
[8] = tested on: Staphylococcus aureus 503; experiment: as above; format: cell-based; conditions: Staphylococcus aureus 503; Mueller-Hinton agar, 10⁷ CFU/mℓ, 37°C, 18 hours; read-out: MIC
[9] = tested on: Pseudomonas aeruginosa 1771M; experiment: as above; format: cell-based; conditions: 18 h
[10] = tested on: Staphylococcus aureus SG 511; experiment: as above; format: cell-based; conditions: SG511; Staphylococcus aureus SG 511; Mueller-Hinton agar, 10⁷ CFU/mℓ, 37°C, 18 hours; read-out: MIC
[11] = tested on: Streptococcus faecium MD 8b; experiment: as above; format: cell-based; conditions: Enterococcus faecium, MD8B; Streptococcus faecium MD 8b; Mueller-Hinton agar, 10⁷ CFU/mℓ, 37°C, 18 hours; read-out: MIC
[12] = tested on: Pseudomonas aeruginosa 1771; experiment: as above; format: cell-based; conditions: Pseudomonas aeruginosa 1771; Mueller-Hinton agar, 10⁷ CFU/mℓ, 37°C, 18 hours; read-out: MIC
[13] = tested on: Enterobacter cloacae 1321E; experiment: as above; format: cell-based; conditions: Mueller-Hinton agar, 10⁷ CFU/mℓ, 37°C, 18 hours, read-out: MIC
P. mirabilis = experiment: Preventive effect on the systemic infection; format: in vivo; conditions: Proteus mirabilis, in Mus musculus, P. mirabilis intraperitoneal infection, NMRI mice, survival on day 7, probit analysis, read-out: ED₅₀
Description: (§1) 10 fold of the pathogen which leads to 100% lethality were injected intraperitoneally to male and female NMRI mice weighing 18 to 20g. Immediately and after 4 hours, the dose of test compounds which was determined by two-fold serial dilution method was administered orally or subcutaneously; and on day 7, the effectiveness was evaluated in terms of ED₅₀ calculated from the number of survived mice by the probit analysis.

S. aureus 17740 = experiment: Preventive effect on the systemic infection; format: in vivo; conditions: Staphylococcus aureus, 17740, in Mus musculus, S. aureus 17740 intraperitoneal infection, NMRI mice, survival on day 7, probit analysis, read-out: ED₅₀
Description: as §1

[14] = Oral Administration immediately and after 4 hours
[15] = Subcutaneous Injection immediately and after 4 hours

Row | Structure (SMILES) | MIC (Escherichia coli 1507E) | MIC [1] | MIC [2] | MIC (Salmonella typhimurium) | MIC [3] | MIC (Escherichia coli DC 0) | MIC [4] | MIC (Escherichia coli OTEM) | MIC (Escherichia coli DC 2) | MIC [5] | MIC (Enterobacter cloacae P99) | MIC (Escherichia coli O 55) | MIC [6] | MIC [7] | MIC [8] | MIC [9] | MIC [10] | MIC [11] | MIC [12] | MIC [13] | also measured
1 | NC1CCCC2=C1CN(c1c(F)cc3c(=O)c(C(=O)O)cn(C4CC4)c3c1F)C2 (stereo not shown) [Example 9, 7-[6-amino-3-azabicyclo[4,3,0]non-1(5)ene-3-yl]-1-cyclopropyl-6,8-difluoro-1,4-dihydro-4-oxoquinoline-3-carboxylic acid] | 0.098 µg/mL (≈ 0.244 µM) | 3.12 µg/mL (≈ 7.78 µM) | 0.098 µg/mL (≈ 0.244 µM) | 0.013 µg/mL (≈ 0.0324 µM) | 0.195 µg/mL (≈ 0.486 µM) | 0.781 µg/mL (≈ 1.95 µM) | 3.12 µg/mL (≈ 7.78 µM) | 0.098 µg/mL (≈ 0.244 µM) | 0.195 µg/mL (≈ 0.486 µM) | 0.391 µg/mL (≈ 0.974 µM) | 0.049 µg/mL (≈ 0.122 µM) | 0.049 µg/mL (≈ 0.122 µM) | 0.195 µg/mL (≈ 0.486 µM) | 0.098 µg/mL (≈ 0.244 µM) | 0.098 µg/mL (≈ 0.244 µM) | 0.781 µg/mL (≈ 1.95 µM) | 0.098 µg/mL (≈ 0.244 µM) | 0.098 µg/mL (≈ 0.244 µM) | 3.12 µg/mL (≈ 7.78 µM) | – | –
2 | CNC1CCC2=C1CN(c1c(F)c(N)c3c(=O)c(C(=O)O)cn(C4CC4)c3c1F)C2 (stereo not shown) [Example 11, 7-[6-methylamino-3-azabicyclo[3,3,0]oct-1(5)ene-3-yl]-5-amino-1-cyclopropyl-6,8-difluoro-1,4-dihydro-4-oxoquinoline-3-carboxylic acid] | 0.098 µg/mL (≈ 0.235 µM) | 3.12 µg/mL (≈ 7.5 µM) | 0.049 µg/mL (≈ 0.118 µM) | 0.098 µg/mL (≈ 0.235 µM) | 0.195 µg/mL (≈ 0.468 µM) | 1.56 µg/mL (≈ 3.75 µM) | 3.12 µg/mL (≈ 7.5 µM) | 0.049 µg/mL (≈ 0.118 µM) | 0.049 µg/mL (≈ 0.118 µM) | 0.391 µg/mL (≈ 0.939 µM) | 0.195 µg/mL (≈ 0.468 µM) | 0.025 µg/mL (≈ 0.06 µM) | 0.007 µg/mL (≈ 0.0168 µM) | 0.195 µg/mL (≈ 0.468 µM) | 0.049 µg/mL (≈ 0.118 µM) | 1.56 µg/mL (≈ 3.75 µM) | 0.195 µg/mL (≈ 0.468 µM) | 0.195 µg/mL (≈ 0.468 µM) | 3.12 µg/mL (≈ 7.5 µM) | 0.049 µg/mL (≈ 0.118 µM) | –
3 | CNC1CCC2=C1CN(c1nc3c(cc1F)c(=O)c(C(=O)O)cn3C1CC1)C2 (stereo not shown) [Example 15, 7-[6-methylamino-3-azabicyclo[3,3,0]oct-1(5)ene-3-yl]-1-cyclopropyl-6-fluoro-1,4-dihydro-4-oxo-1,8-naphthyridine-3-carboxylic acid] | 0.195 µg/mL (≈ 0.507 µM) | 3.12 µg/mL (≈ 8.13 µM) | 0.195 µg/mL (≈ 0.507 µM) | 0.195 µg/mL (≈ 0.507 µM) | 0.195 µg/mL (≈ 0.507 µM) | 1.56 µg/mL (≈ 4.07 µM) | 3.12 µg/mL (≈ 8.13 µM) | 0.098 µg/mL (≈ 0.255 µM) | 0.391 µg/mL (≈ 1.02 µM) | 0.781 µg/mL (≈ 2.03 µM) | 0.049 µg/mL (≈ 0.127 µM) | 0.049 µg/mL (≈ 0.127 µM) | 0.025 µg/mL (≈ 0.065 µM) | 0.195 µg/mL (≈ 0.507 µM) | 0.098 µg/mL (≈ 0.255 µM) | 1.56 µg/mL (≈ 4.07 µM) | 0.098 µg/mL (≈ 0.255 µM) | 0.195 µg/mL (≈ 0.507 µM) | 3.12 µg/mL (≈ 8.13 µM) | 0.049 µg/mL (≈ 0.127 µM) | –
4 | CNC1CCC2=C1CN(c1c(F)cc3c(=O)c(C(=O)O)cn4c3c1OC[C@@H]4C)C2 (stereo partly drawn) [Example 17, 9-fluoro-10-[6-methylamino-3-azabicyclo [3,3,0]oct-1(5)ene-3-yl]-3-(S)-methyl-7-oxo-2,3-dihydro-7H-pyrido[1,2,3-de]-1,4-benzoxazine-6-carboxylic acid] | 0.781 µg/mL (≈ 1.96 µM) | 12.5 µg/mL (≈ 31.3 µM) | 0.781 µg/mL (≈ 1.96 µM) | 0.391 µg/mL (≈ 0.979 µM) | 1.56 µg/mL (≈ 3.91 µM) | 3.12 µg/mL (≈ 7.82 µM) | 6.25 µg/mL (≈ 15.6 µM) | 0.391 µg/mL (≈ 0.979 µM) | 0.391 µg/mL (≈ 0.979 µM) | 3.12 µg/mL (≈ 7.82 µM) | 0.781 µg/mL (≈ 1.96 µM) | 0.195 µg/mL (≈ 0.488 µM) | 0.195 µg/mL (≈ 0.488 µM) | 0.195 µg/mL (≈ 0.488 µM) | 0.781 µg/mL (≈ 1.96 µM) | 3.12 µg/mL (≈ 7.82 µM) | 0.391 µg/mL (≈ 0.979 µM) | 0.391 µg/mL (≈ 0.979 µM) | 12.5 µg/mL (≈ 31.3 µM) | 0.391 µg/mL (≈ 0.979 µM) | –
5 | CC1COc2c(N3CCN(C)CC3)c(F)cc3c(=O)c(C(=O)O)cn1c23 (stereo not shown) [Ofloxacin, reference compound] | 0.098 µg/mL (≈ 0.271 µM) | 1.56 µg/mL (≈ 4.33 µM) | 0.391 µg/mL (≈ 1.08 µM) | 0.098 µg/mL (≈ 0.271 µM) | 0.098 µg/mL (≈ 0.271 µM) | 0.781 µg/mL (≈ 2.16 µM) | 1.56 µg/mL (≈ 4.33 µM) | 0.049 µg/mL (≈ 0.136 µM) | 0.391 µg/mL (≈ 1.08 µM) | 3.12 µg/mL (≈ 8.65 µM) | 0.098 µg/mL (≈ 0.271 µM) | 0.025 µg/mL (≈ 0.0692 µM) | 0.025 µg/mL (≈ 0.0692 µM) | 1.56 µg/mL (≈ 4.33 µM) | 0.391 µg/mL (≈ 1.08 µM) | 0.391 µg/mL (≈ 1.08 µM) | 0.391 µg/mL (≈ 1.08 µM) | 0.781 µg/mL (≈ 2.16 µM) | 1.56 µg/mL (≈ 4.33 µM) | 0.049 µg/mL (≈ 0.136 µM) | ED50 (P. mirabilis; [14]): 2.27 mg/kg; ED50 (P. mirabilis; [15]): 0.53 mg/kg; ED50 (S. aureus 17740; [14]): > 200 mg/kg; ED50 (S. aureus 17740; [15]): 200 mg/kg
